Experimental data: paper PMC13339814 (Microbiology Spectrum, 2026)
Entries after “also recorded” stand apart in the source; their conditions may differ. One block for each substance: values may come before it. Where no end group is shown, it is not given here. The star is where a group is joined. pNA = O=[N+]([O-])c1ccc(N*)cc1; Cbz = O=C(OCc1ccccc1)*

Tests used:
PSP692 [1] = assay: purified PSP692 (1 µM) in 1× phosphate-buffered saline (PBS) at pH 6.0; details: Segatella copri, 37°C
PSP464 [2] = assay: purified PSP464 (1 µM) in 100 mM glycine-HCl buffer at pH 4.0; details: Stenotrophomonas maltophilia, 37°C
PSP464 [3] = assay: HRMS analysis of 11-mer gliadin peptide degradation by PSP464; assay type: in vitro ADME, Stenotrophomonas maltophilia
Description: Gliadin degradation reactions were performed in duplicate for PSP464 activity on the 11-mer and PSP692 activity on the 33-mer at time points of 30 min, 1 h, 2 h, and 4 h. Following incubation, duplicate reactions were pooled prior to downstream processing to minimize technical variability. Reactions were quenched by the addition of trifluoroacetic acid (TFA) in water to a final concentration of 0.1% (vol/vol). To remove intact enzyme and retain low-molecular-weight degradation products, samples were centrifuged through Microcon centrifugal filter units with a 10 kDa MWCO at room temperature for 30 min. The filtrate, containing peptides <10 kDa, was collected and subjected to C18 ZipTip protocol for desalting prior to LC-MS/MS analysis. The elution solvent for desalting was 50% acetonitrile with 0.1% formic acid in water.
Samples were analysed on a Bruker IMPACT HD mass spectrometer in HRMS mode. MS scans were acquired over an m/z range of 50–3,500 at high resolution in positive ion mode. Raw data were processed in MZMine v3.9 ([38]), and the fragment list was exported as an Excel list followed by manual annotation. Chromatograms were generated for identified gliadin-derived peptides across the time course.

[4] = tested on: human gastrointestinal proteases; assay: human gastrointestinal proteases; details: cited from earlier work
PSP692 [5] = assay: purified recombinant PSP692 in pH 6 PBS buffer; details: Segatella copri, 37°C, up to 4 h

cleaved bond (PSP692 [1]): Pro-pNA
Substance: Cbz-Gly-Pro-pNA

cleaved bond (PSP464 [2]): Phe-pNA
Substance: Cbz-Pro-Pro-Phe-pNA

Substance: GPQQSFPEQEA [11-mer]
intensity of parent peak (m/z ~1,218, +1) after incubation with PSP464 (PSP464 [3]; all digestion time points, 30 min to 4 h, pooled duplicates): reduced | peptide fragments formed from 11-mer by PSP464 (m/z 998 and 872) (PSP464 [3]; sequential C-terminal cleavage, sequences assigned from m/z): GPQQSFPEQ and GPQQSFPE

Substance: LQLQPFPQPQLPYPQPQLPYPQPQLPYPQPQPF
not cleaved [4]: evades degradation by human gastrointestinal proteases | fragment found (PSP692 [5]): LQLQP, major, 30 min; also recorded: QPFPQ; also recorded: QLQPFP, major, 30 min
